Laboratory results: patent US4940726A, “Cell growth inhibitory macrocyclic lactones denominated Combretastatin D-1 and Combretastatin D-2” (Arizona Board of Regents, priority 1989, dated 1990)
≈ marks a conversion by molar mass, not a printed value.

System: murine P388 lymphocytic leukemia (PS) cell line
Assay: murine P388 lymphocytic leukemia (PS system) cell line growth inhibition, standard National Cancer Institute protocol
Type: cell-based

SMILES | IC50 (Mus musculus, P388, murine P388 lymphocytic leukemia (PS system) cell line, read-out: PS cell line activity ED50) | PS cell line activity ED50 (murine P388 lymphocytic leukemia (PS system) cell line)
O=C1CCc2ccc(O)c(c2)Oc2ccc(cc2)[C@@H]2O[C@@H]2CO1 (relative stereo) [Combretastatin D-1] | 3.3 mg/L (≈ 10.6 µM) | –
O=C1CCc2ccc(O)c(c2)Oc2ccc(cc2)/C=C\CO1 [Combretastatin D-2] | – | 5.2 mg/L
